According to patent publication US10722527B2, “Abiraterone acetate lipid formulations” (Capsugel Belgium NV, priority 2015, dated 2020):
Like-named read-outs stand apart in the source and are kept apart here.

Assay: Equilibrium solubility of crystalline active in digestion medium / digested placebo LMP formulation
Format: physicochemical
Conditions: 37 °C, thermodynamic from solid
Method: In both cases, the majority of the active was solubilized in a lipid phase that phase-separated on centrifugation of the samples and most likely consisting of larger lipophilic colloids including multi-lamellar vesicles. Active drug in the aqueous phase (consisting of BS/PL mixed-micelles, lipid-enriched BS/PL mixed micelles and small vesicles) is considered the most readily available form for absorption.
In vitro digestion tests were performed as follows: 1 g of the active-containing formulation was dispersed in 40 mL fasted intestinal medium (2 mM Tris-maleate, 1.4 mM CaCl2.2H2O, and 150 mM NaCl, 3 mM sodium taurodeoxycholate and 0.75 mM phosphatidylcholine, 37° C.) using a pH-stat titrator as described by the LFCS Consortium (Williams, H D. et al., J. Pharm. Sci. 101 (2012), p. 3360-3380). […] Active concentration in the aqueous phase was measured by HPLC. […] Also thermodynamic solubility of the active was evaluated in digested placebo formulations for determining solubility in digested lipidic colloidal phases.

Compound: CC(=O)O[C@H]1CC[C@@]2(C)C(=CC[C@@H]3[C@@H]2CC[C@]2(C)C(c4cccnc4)=CC[C@@H]32)C1 [Abiraterone acetate]
- solubility thermodynamic (pH 6.5, aqueous with cosolvent or surfactant or cyclodextrin, digested placebo LMP formulation, read-out: Equilibrium solubility of crystalline active in digested LMP formulations): 121 µg/mL
- solubility thermodynamic (pH 6.5, fassif, same fasted intestinal medium, without digested lipid formulation, read-out: Equilibrium solubility of the crystalline active in digestion medium): 27 µg/mL
